# In article PMC12274840 (The Journal of Biological Chemistry, 2025):
# Where two headings read alike, the source gives them in different places.
# Legend:
# [1] = system: E. coli KA797 cells carrying pUK21 with BlaC WT (Tat); assay: microbe, parasite or virus in culture; format: cell-based; settings: Escherichia coli, antibiotic alone
# [2] = system: E. coli KA797 cells carrying pUK21 with NmcA (pelB/Sec); assay: microbe, parasite or virus in culture; format: cell-based; settings: Escherichia coli, antibiotic alone
# [3] = system: E. coli KA797 cells carrying pUK21 with TEM-1 WT (Sec); assay: microbe, parasite or virus in culture; format: cell-based; settings: Escherichia coli, antibiotic alone
# [4] = system: E. coli KA797 cells carrying pUK21 with CTX-M-14 Y105G; format: cell-based, Escherichia coli; settings: antibiotic alone
# BlaC WT = target: T1, BlaC WT (Mycobacterium tuberculosis, UniProt P9WKD3); format: biochemical; settings: pH 6.4
# T1 construct: correspond to residue numbers 41-307 of BlaC (Uniprot entry P9WKD3-1); His tag with TEV cleavage site (N); made in house; host or cells: E. coli BL21 (DE3) pLysS
# CTX-M-14 Y105G = target: T2, CTX-M-14 Y105G (Escherichia coli, UniProt Q9L5C7, Y108G); format: biochemical
# T2 construct: 29 to 291 of CTX-M-14 (Q9L5C7); His tag with TEV cleavage site (N); made in house; host or cells: E. coli BL21 (DE3) pLysS
# TEM-1 Y105G = TEM-1 Y105G (Escherichia coli, UniProt P62593, Y103G); assay: Steady-state kinetics of substrate hydrolysis, TEM-1 Y105G; format: biochemical; settings: phosphate buffer pH 6.4, 25 °C
# [5] = system: E. coli KA797 cells carrying CTX-M-14 position 105 library; format: cell-based
# [6] = system: E. coli KA797 cells carrying KPC-2 position 105 library; format: cell-based; settings: selection with labelled antibiotic
# [7] = system: E. coli KA797 cells carrying TEM-1 position 105 library; format: cell-based; settings: for Fi carbenicillin AVG: average of replicates
smiles,measurement,setting,value
CC1(C)S[C@@H]2[C@H](NC(=O)C(C(=O)O)c3ccccc3)C(=O)N2[C@H]1C(=O)O (stereo partly drawn) [carbenicillin],MIC,[1],800 µg/mL
same,MIC,[2],200 µg/mL
same,MIC,[3],32000 µg/mL
same,MIC,[4],1000 µg/mL
same,kcat,BlaC WT,0.51 ± 00.2 s⁻¹
same,Km,BlaC WT; read-out: KM^app,5.5 ± 0.7 µM
same,kcat,"CTX-M-14 Y105G; phosphate buffer pH 6.4, 25 °C",11 ± 2 s⁻¹
same,Km,"CTX-M-14 Y105G; read-out: KM^app, phosphate buffer pH 6.4, 25 °C",228 ± 61 µM
same,kcat,TEM-1 Y105G,59.0 ± 0.3 s⁻¹
same,Significance of average fitness,[5]; CTX-M-14 AA 105 Ala,-
same,Significance of average fitness,[5]; CTX-M-14 AA 105 Arg,-
same,Significance of average fitness,[5]; CTX-M-14 AA 105 Asn,-
same,Significance of average fitness,[5]; CTX-M-14 AA 105 Asp,-
same,Significance of average fitness,[5]; CTX-M-14 AA 105 Cys,-
same,Significance of average fitness,[5]; CTX-M-14 AA 105 Gln,-
same,Significance of average fitness,[5]; CTX-M-14 AA 105 Glu,-
same,Significance of average fitness,[5]; CTX-M-14 AA 105 Gly,-
same,Significance of average fitness,[5]; CTX-M-14 AA 105 His,-
same,Significance of average fitness,[5]; CTX-M-14 AA 105 Ile,-
same,Significance of average fitness,[5]; CTX-M-14 AA 105 Leu,-
same,Significance of average fitness,[5]; CTX-M-14 AA 105 Lys,-
same,Significance of average fitness,[5]; CTX-M-14 AA 105 Met,-
same,Significance of average fitness,[5]; CTX-M-14 AA 105 Pro,-
same,Significance of average fitness,[5]; CTX-M-14 AA 105 Ser,-
same,Significance of average fitness,[5]; CTX-M-14 AA 105 Thr,-
same,Significance of average fitness,[5]; CTX-M-14 AA 105 Val,-
same,"WT abs Fi 1 (absolute fitness of wild type, Replicate 1)",[5]; CTX-M-14 WT (Tyr 105),0.706
same,Fi AVG (average fitness of replicates),[6]; KPC-2 AA 105 = Ala,-1.895
same,Fi AVG (average fitness of replicates),[6]; KPC-2 AA 105 = Arg,-0.930
same,Significance of average fitness,[6]; KPC-2 AA 105 = Arg,-
same,Fi AVG (average fitness of replicates),[6]; KPC-2 AA 105 = Asn,-1.475
same,Fi AVG (average fitness of replicates),[6]; KPC-2 AA 105 = Asp,-1.100
same,Significance of average fitness,[6]; KPC-2 AA 105 = Asp,-
same,Fi AVG (average fitness of replicates),[6]; KPC-2 AA 105 = Cys,-1.311
same,Significance of average fitness,[6]; KPC-2 AA 105 = Cys,-
same,Fi AVG (average fitness of replicates),[6]; KPC-2 AA 105 = Gln,-2.037
same,Significance of average fitness,[6]; KPC-2 AA 105 = Gln,-
same,Fi AVG (average fitness of replicates),[6]; KPC-2 AA 105 = Glu,-1.844
same,Fi AVG (average fitness of replicates),[6]; KPC-2 AA 105 = Gly,-1.656
same,Significance of average fitness,[6]; KPC-2 AA 105 = Gly,-
same,Fi AVG (average fitness of replicates),[6]; KPC-2 AA 105 = His,0.833
same,Significance of average fitness,[6]; KPC-2 AA 105 = His,+
same,Fi AVG (average fitness of replicates),[6]; KPC-2 AA 105 = Ile,-0.975
same,Fi AVG (average fitness of replicates),[6]; KPC-2 AA 105 = Leu,-1.769
same,Significance of average fitness,[6]; KPC-2 AA 105 = Leu,-
same,Fi AVG (average fitness of replicates),[6]; KPC-2 AA 105 = Met,-2.969
same,Fi AVG (average fitness of replicates),[6]; KPC-2 AA 105 = Phe,-1.337
same,Significance of average fitness,[6]; KPC-2 AA 105 = Phe,-
same,Fi AVG (average fitness of replicates),[6]; KPC-2 AA 105 = Ser,-2.334
same,Significance of average fitness,[6]; KPC-2 AA 105 = Ser,-
same,Fi AVG (average fitness of replicates),[6]; KPC-2 AA 105 = Thr,-0.740
same,Significance of average fitness,[6]; KPC-2 AA 105 = Thr,-
same,Fi AVG (average fitness of replicates),"[6]; KPC-2 AA 105 = Trp (WT, reference)",0.000
same,Fi AVG (average fitness of replicates),[6]; KPC-2 AA 105 = Tyr,-1.021
same,Significance of average fitness,[6]; KPC-2 AA 105 = Tyr,-
same,Fi AVG (average fitness of replicates),[6]; KPC-2 AA 105 = Val,-2.800
same,Significance of average fitness,[6]; KPC-2 AA 105 = Val,-
same,WT abs Fi 1 (absolute fitness),"[6]; KPC-2 WT (Trp 105), replicate 1",0.136
same,WT abs Fi 2 (absolute fitness),"[6]; KPC-2 WT (Trp 105), replicate 2",-0.163
same,WT abs Fi 3 (absolute fitness),"[6]; KPC-2 WT (Trp 105), replicate 3",0.473
same,Significance (Average fitnes carbenicillin),[7]; AA 105 Ala,-
same,Fi carbenicillin AVG,[7]; AA 105 Ala,-0.528
same,Fi CAR 1,"[7]; AA 105 Ala, replicate 1",-0.503
same,Fi CAR 2,"[7]; AA 105 Ala, replicate 2",-0.553
same,Significance (Average fitnes carbenicillin),[7]; AA 105 Arg,-
same,Fi carbenicillin AVG,[7]; AA 105 Arg,-0.371
same,Fi CAR 1,"[7]; AA 105 Arg, replicate 1",-0.360
same,Fi CAR 2,"[7]; AA 105 Arg, replicate 2",-0.382
same,Fi carbenicillin AVG,[7]; AA 105 Asn,-0.119
same,Fi CAR 1,"[7]; AA 105 Asn, replicate 1",-0.088
same,Fi CAR 2,"[7]; AA 105 Asn, replicate 2",-0.150
same,Significance (Average fitnes carbenicillin),[7]; AA 105 Asp,-
same,Fi carbenicillin AVG,[7]; AA 105 Asp,-1.040
same,Fi CAR 1,"[7]; AA 105 Asp, replicate 1",-1.009
same,Fi CAR 2,"[7]; AA 105 Asp, replicate 2",-1.070
same,Significance (Average fitnes carbenicillin),[7]; AA 105 Cys,-
same,Fi carbenicillin AVG,[7]; AA 105 Cys,-0.639
same,Fi CAR 1,"[7]; AA 105 Cys, replicate 1",-0.611
same,Fi CAR 2,"[7]; AA 105 Cys, replicate 2",-0.666
same,Significance (Average fitnes carbenicillin),[7]; AA 105 Gln,-
same,Fi carbenicillin AVG,[7]; AA 105 Gln,-0.400
same,Fi CAR 1,"[7]; AA 105 Gln, replicate 1",-0.384
same,Fi CAR 2,"[7]; AA 105 Gln, replicate 2",-0.417
same,Significance (Average fitnes carbenicillin),[7]; AA 105 Glu,-
same,Fi carbenicillin AVG,[7]; AA 105 Glu,-0.893
same,Fi CAR 1,"[7]; AA 105 Glu, replicate 1",-0.890
same,Fi CAR 2,"[7]; AA 105 Glu, replicate 2",-0.895
same,Fi carbenicillin AVG,[7]; AA 105 Gly,-0.181
same,Fi CAR 1,"[7]; AA 105 Gly, replicate 1",-0.158
same,Fi CAR 2,"[7]; AA 105 Gly, replicate 2",-0.204
same,Fi carbenicillin AVG,[7]; AA 105 His,-0.182
same,Fi CAR 1,"[7]; AA 105 His, replicate 1",-0.177
same,Fi CAR 2,"[7]; AA 105 His, replicate 2",-0.187
same,Significance (Average fitnes carbenicillin),[7]; AA 105 Ile,-
same,Fi carbenicillin AVG,[7]; AA 105 Ile,-0.707
same,Fi CAR 1,"[7]; AA 105 Ile, replicate 1",-0.683
same,Fi CAR 2,"[7]; AA 105 Ile, replicate 2",-0.731
same,Significance (Average fitnes carbenicillin),[7]; AA 105 Leu,-
same,Fi carbenicillin AVG,[7]; AA 105 Leu,-0.631
same,Fi CAR 1,"[7]; AA 105 Leu, replicate 1",-0.615
same,Fi CAR 2,"[7]; AA 105 Leu, replicate 2",-0.647
same,Significance (Average fitnes carbenicillin),[7]; AA 105 Lys,-
same,Fi carbenicillin AVG,[7]; AA 105 Lys,-0.496
same,Fi CAR 1,"[7]; AA 105 Lys, replicate 1",-0.486
same,Fi CAR 2,"[7]; AA 105 Lys, replicate 2",-0.506
same,Significance (Average fitnes carbenicillin),[7]; AA 105 Met,-
same,Fi carbenicillin AVG,[7]; AA 105 Met,-0.369
same,Fi CAR 1,"[7]; AA 105 Met, replicate 1",-0.357
same,Fi CAR 2,"[7]; AA 105 Met, replicate 2",-0.382
same,Fi carbenicillin AVG,[7]; AA 105 Phe,-0.152
same,Fi CAR 1,"[7]; AA 105 Phe, replicate 1",-0.133
same,Fi CAR 2,"[7]; AA 105 Phe, replicate 2",-0.171
same,Significance (Average fitnes carbenicillin),[7]; AA 105 Pro,-
same,Fi carbenicillin AVG,[7]; AA 105 Pro,-0.936
same,Fi CAR 1,"[7]; AA 105 Pro, replicate 1",-0.929
same,Fi CAR 2,"[7]; AA 105 Pro, replicate 2",-0.943
same,Significance (Average fitnes carbenicillin),[7]; AA 105 Ser,-
same,Fi carbenicillin AVG,[7]; AA 105 Ser,-0.354
same,Fi CAR 1,"[7]; AA 105 Ser, replicate 1",-0.356
same,Fi CAR 2,"[7]; AA 105 Ser, replicate 2",-0.352
same,Significance (Average fitnes carbenicillin),[7]; AA 105 Thr,-
same,Fi carbenicillin AVG,[7]; AA 105 Thr,-0.562
same,Fi CAR 1,"[7]; AA 105 Thr, replicate 1",-0.532
same,Fi carbenicillin AVG,[7]; AA 105 Trp,-0.027
same,Fi CAR 1,"[7]; AA 105 Trp, replicate 1",-0.012
same,Fi CAR 2,"[7]; AA 105 Trp, replicate 2",-0.043
same,Fi carbenicillin AVG,[7]; AA 105 Tyr,0.000
same,Fi CAR 1,"[7]; AA 105 Tyr, replicate 1",0.000
same,Fi CAR 2,"[7]; AA 105 Tyr, replicate 2",0.000
same,Significance (Average fitnes carbenicillin),[7]; AA 105 Val,-
same,Fi carbenicillin AVG,[7]; AA 105 Val,-0.544
same,Fi CAR 1,"[7]; AA 105 Val, replicate 1",-0.508
same,Fi CAR 2,"[7]; AA 105 Val, replicate 2",-0.579
same,WT abs Fi 1,"[7]; absolute fitness of TEM-1 WT, carbenicillin, replicate 1",0.724
same,WT abs Fi 2,"[7]; absolute fitness of TEM-1 WT, carbenicillin, replicate 2",0.359
